According to patent publication US20250123273A1, “SYSTEM TO CALCULATE HUMAN ORAL BIOAVAILABILITY” (CN Bio Innovations Limited, priority 2023, published 2025):

Legend:
[1] = tested on: primary human intestinal cells; test: Intestinal barrier strength by transepithelial electrical resistance (TEER), primary intestinal cells in different media; assay type: cell-based; settings: after 8 days in culture, FIG. 3
Description: It was clear that that serum free intestinal differentiation media compromised the metabolic functionality of primary liver cells, thus would not be appropriate for the co-culture of these two cell types. Therefore, the inventors investigated which components of serum free intestinal differentiation media were important for intestinal barrier function.

[2] = tested on: primary liver cells; test: CYP3A4 metabolic rate of primary liver cells co-cultured with primary intestinal cells in dual organ plate; assay type: cell-based, human; settings: co-culture with primary intestinal cells; threshold 1 pmol/min/million cell; by day 6 in culture; FIG. 4

Compound	TEER (intestinal barrier strength) [1]	CYP3A4 metabolic rate [2]
C[C@]12CCC(=O)C=C1CC[C@@H]1[C@@H]2[C@@H](O)C[C@@]2(C)[C@H]1CC[C@]2(O)C(=O)CO [hydrocortisone, reference compound]	help maintain primary intestinal cell barrier function	–
epidermal growth factor [EGF]	critical for primary intestinal cell barrier function	compromises the metabolic functionality
